Source: PubChem BioAssay AID1259407 (Chemical Carcinogenesis Research Information System (CCRIS), 2018)
Calls of active or inactive are those of the source. The rule behind the calls is not given here.

Tested on: CCRIS mutagenicity, Ames/micronucleus/aberration tests
Test: CCRIS mutagenicity studies
Settings: Test System: AMES SALMONELLA TYPHIMURIUM, Method: STANDARD PLATE
[1] = Strain/Indicator: TA100, Metabolic Activation: RAT, LIVER, S-9, AROCLOR 1254
[2] = Strain/Indicator: TA1538, Metabolic Activation: NONE
[3] = Strain/Indicator: TA1538, Metabolic Activation: RAT, LIVER, S-9, AROCLOR 1254

## c1ccc2cc3cc4ccccc4cc3cc2c1
Strain/Indicator: TA98, Metabolic Activation: NONE
  mutagenic call: inactive; negative
Strain/Indicator: TA98, Metabolic Activation: RAT, LIVER, S-9, 3-METHYLCHOLANTHRENE
  mutagenic call: active; positive
Strain/Indicator: TA98, Metabolic Activation: RAT, LIVER, S-9, AROCLOR 1254
  mutagenic call: active; positive
Strain/Indicator: TA100, Metabolic Activation: MOUSE, LIVER, S-9, 2,3,7,8-TETRACHLORODIBENZO-P-DIOXIN
  mutagenic call: active; positive
Strain/Indicator: TA100, Metabolic Activation: MOUSE, LIVER, S-9, 3-METHYLCHOLANTHRENE
  mutagenic call: active; positive
Strain/Indicator: TA100, Metabolic Activation: NONE
  mutagenic call: inactive; negative
Strain/Indicator: TA100, Metabolic Activation: RAT, LIVER, S-9, 3-METHYLCHOLANTHRENE
  mutagenic call: active; positive
[1]
  mutagenic call: active; positive
Strain/Indicator: TA1535, Metabolic Activation: NONE
  mutagenic call: inactive; negative
Strain/Indicator: TA1535, Metabolic Activation: RAT, LIVER, S-9, 3-METHYLCHOLANTHRENE
  mutagenic call: inactive; negative
Strain/Indicator: TA1535, Metabolic Activation: RAT, LIVER, S-9, AROCLOR 1254
  mutagenic call: inactive; negative
Strain/Indicator: TA1537, Metabolic Activation: NONE
  mutagenic call: inactive; negative
Strain/Indicator: TA1537, Metabolic Activation: RAT, LIVER, S-9, 3-METHYLCHOLANTHRENE
  mutagenic call: active; positive
Strain/Indicator: TA1537, Metabolic Activation: RAT, LIVER, S-9, AROCLOR 1254
  mutagenic call: active; positive
[2]
  mutagenic call: inactive; negative
Strain/Indicator: TA1538, Metabolic Activation: RAT, LIVER, S-9, 3-METHYLCHOLANTHRENE
  mutagenic call: active; positive
[3]
  mutagenic call: active; positive

## CCCOc1cc2c(c3ccc4ccccc4c13)CCC2=O
[1]
  mutagenic call: inactive; negative

## CCOC(=O)c1cc2cc3c4c(c2oc1=O)CCCN4CCC3
[2]
  mutagenic call: inactive; negative
[3]
  mutagenic call: inactive; negative
